According to patent US10597620B2, “Taste modifiers comprising a chlorogenic acid” (GIVAUDAN SA, priority 2001, dated 2020):

Assay: Flavorist panel evaluation of aged artificially sweetened beverage with added chlorogenic acid
Type: in vivo
Conditions: final concentration 0.003% w/v; compared to untreated beverage; six member panel of trained flavorists
Description: An artificially sweetened beverage is prepared by mixing 1.4 g aspartame, 0.9 g acesulfame K, 6 ml sodium benzoate (25%^w/v in water), 1.3 ml phosphoric acid (85%^w/v), and 0.5 ml citric acid (50%^w/v in water). The volume of the mixture is adjusted to 1000 ml with water. The beverage mixture is aged for three weeks at 34° C.
A 2.8%^w/w solution of a commercially available synthetic chlorogenic acid (>95% pure (1,3,4,5-tetrahydroxy-cyclohexanecarboxylic acid 3-[3,4-dihydroxycinnamate]), Sigma Chemical Co., St. Louis, Mo.), in water, pH 5.6, is added to a portion of the aged beverage to a final concentration of 0.003%^w/v. The beverage containing chlorogenic acid is evaluated and compared to the untreated beverage by a six member panel of trained flavorists. The beverage containing the commercial chlorogenic acid is judged by the panel to display markedly less of the metallic, slightly bitter aftertaste found in the aged artificially sweetened beverage.
To another portion of the artificially sweetened beverage prepared as described in the first paragraph of Example 6, an aqueous solution of chlorogenic acid from the powdered extract of green coffee beans is added to a final concentration of 0.003%^w/v chlorogenic acid. This beverage is evaluated by the same flavorist panel as described in Example 6. […]

O=C(C=Cc1ccc(O)c(O)c1)OC1CC(O)(C(=O)O)CC(O)C1O (stereo not shown) [synthetic chlorogenic acid, 1,3,4,5-tetrahydroxy-cyclohexanecarboxylic acid 3-[3,4-dihydroxycinnamate]]
metallic, slightly bitter aftertaste found in the aged artificially sweetened beverage: markedly less
